Results from patent publication US10168342B2, “Lipid probes and uses thereof” (THE SCRIPPS RESEARCH INSTITUTE, priority 2015, dated 2019).
Read-outs that look alike come from different tables or passages of the source.

Tests used:
[1] = biological target: T1, AEA-DA lipid probe targets in Neuro2a cells (Mus musculus, UniProt O88325)
T1 sequence (O88325 22-739): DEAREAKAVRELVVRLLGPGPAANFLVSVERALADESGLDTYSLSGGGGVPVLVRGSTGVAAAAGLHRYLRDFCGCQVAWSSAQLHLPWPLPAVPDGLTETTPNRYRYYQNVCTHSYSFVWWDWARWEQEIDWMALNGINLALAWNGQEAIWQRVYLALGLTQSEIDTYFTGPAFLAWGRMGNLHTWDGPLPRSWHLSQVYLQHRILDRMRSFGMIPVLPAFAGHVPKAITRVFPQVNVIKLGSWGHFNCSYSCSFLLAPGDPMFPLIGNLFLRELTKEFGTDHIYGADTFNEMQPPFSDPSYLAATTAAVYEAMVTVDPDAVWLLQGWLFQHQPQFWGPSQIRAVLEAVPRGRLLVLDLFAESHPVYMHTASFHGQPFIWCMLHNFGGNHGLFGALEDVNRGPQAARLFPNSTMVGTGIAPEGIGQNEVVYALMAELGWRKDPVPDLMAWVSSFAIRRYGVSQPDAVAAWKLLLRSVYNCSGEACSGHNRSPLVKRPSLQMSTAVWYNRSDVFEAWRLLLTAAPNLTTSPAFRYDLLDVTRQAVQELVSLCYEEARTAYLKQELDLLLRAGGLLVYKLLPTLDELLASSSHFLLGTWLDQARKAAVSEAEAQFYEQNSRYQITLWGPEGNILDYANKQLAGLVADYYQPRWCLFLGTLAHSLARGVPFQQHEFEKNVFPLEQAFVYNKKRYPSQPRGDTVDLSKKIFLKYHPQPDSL

[2] = biological target: AEA-DA lipid probe targets in Neuro2a cells (Mus musculus, UniProt O88696)
AEA-DA lipid probe targets in Neuro2a cells (Mus musculus, UniProt O88696), sequence (O88696 53-272): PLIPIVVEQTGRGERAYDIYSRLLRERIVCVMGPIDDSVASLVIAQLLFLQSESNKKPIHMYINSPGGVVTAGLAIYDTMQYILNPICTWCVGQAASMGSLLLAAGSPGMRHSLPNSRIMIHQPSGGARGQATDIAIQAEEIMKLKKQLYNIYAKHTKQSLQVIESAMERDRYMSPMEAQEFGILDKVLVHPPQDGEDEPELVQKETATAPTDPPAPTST

[3] = biological target: T2, AEA-DA lipid probe targets in Neuro2a cells (Mus musculus, UniProt Q5XJY4)
T2 sequence (Q5XJY4 51-377): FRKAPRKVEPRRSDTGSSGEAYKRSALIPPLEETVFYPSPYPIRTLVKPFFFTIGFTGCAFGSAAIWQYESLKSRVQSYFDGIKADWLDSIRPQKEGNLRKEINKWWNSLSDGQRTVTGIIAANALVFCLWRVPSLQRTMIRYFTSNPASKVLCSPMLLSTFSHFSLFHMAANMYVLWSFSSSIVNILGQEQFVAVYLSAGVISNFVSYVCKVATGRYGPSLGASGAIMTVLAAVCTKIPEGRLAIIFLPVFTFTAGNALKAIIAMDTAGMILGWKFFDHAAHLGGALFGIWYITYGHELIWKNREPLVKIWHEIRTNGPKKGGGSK

[4] = biological target: T3, AEA-DA lipid probe targets in Neuro2a cells (Mus musculus, UniProt Q60692)
T3 sequence (Q60692 1-238): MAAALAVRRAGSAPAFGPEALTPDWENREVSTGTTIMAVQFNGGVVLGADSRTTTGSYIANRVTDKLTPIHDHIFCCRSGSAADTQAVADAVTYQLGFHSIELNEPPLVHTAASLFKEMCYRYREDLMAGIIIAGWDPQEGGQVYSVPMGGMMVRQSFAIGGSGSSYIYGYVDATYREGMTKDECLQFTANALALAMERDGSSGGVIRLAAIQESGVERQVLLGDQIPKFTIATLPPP

[5] = biological target: T4, AEA-DA lipid probe targets in Neuro2a cells (Mus musculus, UniProt Q80ZW2)
T4 sequence (Q80ZW2 22-207): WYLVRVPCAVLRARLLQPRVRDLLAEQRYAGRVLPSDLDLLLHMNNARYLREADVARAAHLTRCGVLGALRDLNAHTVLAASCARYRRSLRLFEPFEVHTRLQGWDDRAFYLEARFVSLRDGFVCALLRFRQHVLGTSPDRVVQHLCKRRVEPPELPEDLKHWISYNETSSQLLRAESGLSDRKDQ

[6] = biological target: T5, AEA-DA lipid probe targets in Neuro2a cells (Mus musculus, UniProt Q9CPQ3); settings: for SILAC ratio, TOMM22 (Q9CPQ3): Neuro2a cells, AEA-DA probe
T5 sequence (Q9CPQ3 1-142): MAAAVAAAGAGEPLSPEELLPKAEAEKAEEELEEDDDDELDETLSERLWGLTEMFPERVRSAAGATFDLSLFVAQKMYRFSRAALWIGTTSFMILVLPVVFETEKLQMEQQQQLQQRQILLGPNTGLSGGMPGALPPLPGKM

[7] = biological target: AEA-DA lipid probe targets in Neuro2a cells (Mus musculus, UniProt Q9D8N0)
AEA-DA lipid probe targets in Neuro2a cells (Mus musculus, UniProt Q9D8N0), sequence (Q9D8N0 whole entry): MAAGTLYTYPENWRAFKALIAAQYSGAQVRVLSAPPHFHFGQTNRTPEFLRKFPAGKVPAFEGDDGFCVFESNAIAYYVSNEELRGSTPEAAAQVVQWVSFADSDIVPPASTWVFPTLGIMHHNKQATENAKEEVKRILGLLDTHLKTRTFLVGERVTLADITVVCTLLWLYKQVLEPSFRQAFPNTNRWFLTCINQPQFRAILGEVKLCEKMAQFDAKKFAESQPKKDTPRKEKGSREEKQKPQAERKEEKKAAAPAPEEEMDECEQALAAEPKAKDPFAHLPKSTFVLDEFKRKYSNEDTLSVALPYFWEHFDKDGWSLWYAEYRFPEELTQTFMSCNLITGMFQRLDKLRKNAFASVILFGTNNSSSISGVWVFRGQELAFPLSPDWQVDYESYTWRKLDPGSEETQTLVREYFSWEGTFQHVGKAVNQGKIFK

[8] = biological target: AEA-DA lipid probe targets in Neuro2a cells (Mus musculus, UniProt Q9DCH4)
AEA-DA lipid probe targets in Neuro2a cells (Mus musculus, UniProt Q9DCH4), sequence (Q9DCH4 whole entry): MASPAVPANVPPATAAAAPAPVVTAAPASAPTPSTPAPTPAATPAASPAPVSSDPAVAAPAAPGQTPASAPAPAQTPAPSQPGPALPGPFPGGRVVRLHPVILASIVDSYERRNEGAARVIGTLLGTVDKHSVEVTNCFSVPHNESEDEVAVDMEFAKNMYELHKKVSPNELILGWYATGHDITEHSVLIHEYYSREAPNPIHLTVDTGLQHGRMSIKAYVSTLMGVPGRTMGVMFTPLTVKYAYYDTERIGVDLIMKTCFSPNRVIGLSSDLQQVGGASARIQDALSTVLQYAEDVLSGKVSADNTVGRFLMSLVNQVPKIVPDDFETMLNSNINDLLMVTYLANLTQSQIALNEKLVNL

[9] = biological target: T6, AEA-DA lipid probe targets in Neuro2a cells (Mus musculus, UniProt Q61263)
T6 sequence (Q61263 1-540): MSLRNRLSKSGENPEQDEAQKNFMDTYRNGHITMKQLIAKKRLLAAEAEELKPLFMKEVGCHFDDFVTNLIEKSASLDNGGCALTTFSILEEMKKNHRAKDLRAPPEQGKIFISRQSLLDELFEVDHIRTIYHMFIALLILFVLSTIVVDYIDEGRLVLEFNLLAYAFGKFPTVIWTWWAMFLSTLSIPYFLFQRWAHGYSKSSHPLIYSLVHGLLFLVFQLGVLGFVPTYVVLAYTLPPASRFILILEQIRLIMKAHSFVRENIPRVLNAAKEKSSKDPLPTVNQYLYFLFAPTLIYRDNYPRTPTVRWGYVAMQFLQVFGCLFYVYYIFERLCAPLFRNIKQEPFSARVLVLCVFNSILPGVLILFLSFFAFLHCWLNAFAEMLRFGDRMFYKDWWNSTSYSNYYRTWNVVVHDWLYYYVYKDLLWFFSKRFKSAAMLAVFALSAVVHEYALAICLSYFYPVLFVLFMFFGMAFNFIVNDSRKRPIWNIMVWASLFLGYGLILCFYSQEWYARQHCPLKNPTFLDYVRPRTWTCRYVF

[10] = biological target: AEA-DA lipid probe targets in Neuro2a cells (Mus musculus, UniProt Q8BK63)
AEA-DA lipid probe targets in Neuro2a cells (Mus musculus, UniProt Q8BK63), sequence (Q8BK63 whole entry): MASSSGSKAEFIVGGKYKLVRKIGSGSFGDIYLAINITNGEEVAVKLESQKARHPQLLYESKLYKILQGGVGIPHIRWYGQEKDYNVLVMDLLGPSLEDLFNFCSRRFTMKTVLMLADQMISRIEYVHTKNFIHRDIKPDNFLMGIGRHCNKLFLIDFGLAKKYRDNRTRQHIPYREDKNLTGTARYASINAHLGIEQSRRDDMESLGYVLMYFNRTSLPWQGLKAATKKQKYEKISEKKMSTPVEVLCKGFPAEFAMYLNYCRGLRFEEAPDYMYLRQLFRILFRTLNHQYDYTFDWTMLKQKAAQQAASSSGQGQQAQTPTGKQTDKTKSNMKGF

CCCCC/C=C\C/C=C\C/C=C\C/C=C\CCCC(=O)NCCO [AEA, anandamide, reference compound]
SILAC ratio Naglu ([1]; competitor 200 μM): 1.3
SILAC ratio Clpp ([2]; competitor 200 μM): 1.4
SILAC ratio Parl ([3]; competitor 200 μM): 1.3
SILAC ratio Psmb6 ([4]; competitor 200 μM): 1.4
SILAC ratio Them6 ([5]; competitor 200 μM): 1.9
SILAC ratio, TOMM22 (Q9CPQ3) ([6]; competitor 200 μM): 1.4
SILAC ratio, Tomm22 ([6]; competitor 200 μM): 1.4
SILAC ratio Eef1g ([7]; competitor 200 μM): 1.4
SILAC ratio Eif3f ([8]; competitor 200 μM): 1.4

O=C(/C=C/c1cccnc1)NCCCCC1CCN(C(=O)c2ccccc2)CC1 [FK-866, reference compound]
SILAC ratio Naglu ([1]; competitor 25 μM): 1.3
SILAC ratio Clpp ([2]; competitor 25 μM): 1.0
SILAC ratio Parl ([3]; competitor 25 μM): 1.3
SILAC ratio Psmb6 ([4]; competitor 25 μM): 1.4
SILAC ratio, Soat1 ([9]; competitor 25 μM): 2.3
SILAC ratio Them6 ([5]; competitor 25 μM): 1.0
SILAC ratio Csnk1a1 ([10]; competitor 25 μM): 1.5
SILAC ratio, TOMM22 (Q9CPQ3) ([6]; competitor 25 μM): 1.1
SILAC ratio, Tomm22 ([6]; competitor 25 μM): 1.1
SILAC ratio Eef1g ([7]; competitor 25 μM): 1.5
SILAC ratio Eif3f ([8]; competitor 25 μM): 1.3

CN1CCN(C(=O)c2c(-c3ccccc3)c3cc([N+](=O)[O-])ccc3n2C)CC1 [KML110, (1-Methyl-5-nitro-3-phenyl-1H-indol-2-yl)(4-methylpiperazin-1-yl)methanone]
SILAC ratio Naglu ([1]; competitor 25 μM): 1.4
SILAC ratio Clpp ([2]; competitor 25 μM): 2.4
SILAC ratio Parl ([3]; competitor 25 μM): 1.3
SILAC ratio Psmb6 ([4]; competitor 25 μM): 1.9
SILAC ratio Them6 ([5]; competitor 25 μM): 1.3
SILAC ratio Csnk1a1 ([10]; competitor 25 μM): 1.5
SILAC ratio, Tomm22 ([6]; competitor 25 μM): 1.3
SILAC ratio Eef1g ([7]; competitor 25 μM): 1.4
SILAC ratio Eif3f ([8]; competitor 25 μM): 1.3

CN1CCN(C(=O)c2[nH]c3ccc([N+](=O)[O-])cc3c2-c2ccccc2)CC1 [MJN228, (4-Methylpiperazin-1-yl)(5-nitro-3-phenyl-1H-indol-2-yl)methanone]
SILAC ratio Naglu ([1]; competitor 10 μM): 1.4
SILAC ratio Naglu ([1]; competitor 25 μM): 1.3
SILAC ratio Naglu ([1]; competitor 50 μM): 1.9
SILAC ratio Naglu ([1]; competitor 100 μM): 1.7
SILAC ratio Clpp ([2]; competitor 10 μM): 1.4
SILAC ratio Clpp ([2]; competitor 25 μM): 2.1
SILAC ratio Clpp ([2]; competitor 50 μM): 3.6
SILAC ratio Clpp ([2]; competitor 100 μM): 9.0
SILAC ratio Parl ([3]; competitor 10 μM): 1.3
SILAC ratio Parl ([3]; competitor 25 μM): 1.4
SILAC ratio Parl ([3]; competitor 50 μM): 1.1
SILAC ratio Parl ([3]; competitor 100 μM): 1.9
SILAC ratio Psmb6 ([4]; competitor 10 μM): 1.3
SILAC ratio Psmb6 ([4]; competitor 25 μM): 1.5
SILAC ratio Psmb6 ([4]; competitor 50 μM): 1.4
SILAC ratio Psmb6 ([4]; competitor 100 μM): 2.5
SILAC ratio, Soat1 ([9]; competitor 10 μM): 1.2
SILAC ratio, Soat1 ([9]; competitor 25 μM): 2.6
SILAC ratio Them6 ([5]; competitor 10 μM): 1.2
SILAC ratio Them6 ([5]; competitor 25 μM): 1.3
SILAC ratio Them6 ([5]; competitor 100 μM): 1.3
SILAC ratio Csnk1a1 ([10]; competitor 25 μM): 1.4
SILAC ratio Csnk1a1 ([10]; competitor 100 μM): 1.3
SILAC ratio, TOMM22 (Q9CPQ3) ([6]; competitor 25 μM): 1.2
SILAC ratio, Tomm22 ([6]; competitor 10 μM): 1.1
SILAC ratio, Tomm22 ([6]; competitor 25 μM): 1.2
SILAC ratio, Tomm22 ([6]; competitor 50 μM): 1.2
SILAC ratio, Tomm22 ([6]; competitor 100 μM): 1.8
SILAC ratio Eef1g ([7]; competitor 10 μM): 1.1
SILAC ratio Eef1g ([7]; competitor 25 μM): 1.1
SILAC ratio Eef1g ([7]; competitor 50 μM): 1.0
SILAC ratio Eef1g ([7]; competitor 100 μM): 1.3
SILAC ratio Eif3f ([8]; competitor 10 μM): 1.0
SILAC ratio Eif3f ([8]; competitor 25 μM): 1.0
SILAC ratio Eif3f ([8]; competitor 100 μM): 0.9

C=CCN(C)CCCCCCOc1ccc(C(=O)c2ccc(Br)cc2)c(F)c1 [Ro 48-8071, reference compound]
SILAC ratio Naglu ([1]; competitor 25 μM): 0.3
SILAC ratio Clpp ([2]; competitor 25 μM): 0.9
SILAC ratio Parl ([3]; competitor 25 μM): 1.1
SILAC ratio Psmb6 ([4]; competitor 25 μM): 1.0
SILAC ratio, Soat1 ([9]; competitor 25 μM): 1.8
SILAC ratio Them6 ([5]; competitor 25 μM): 1.0
SILAC ratio Csnk1a1 ([10]; competitor 25 μM): 0.9
SILAC ratio, TOMM22 (Q9CPQ3) ([6]; competitor 25 μM): 1.0
SILAC ratio, Tomm22 ([6]; competitor 25 μM): 1.0
SILAC ratio Eef1g ([7]; competitor 25 μM): 0.9
SILAC ratio Eif3f ([8]; competitor 25 μM): 0.9
